Measurements as given in patent US20240059668A1, “THIOHYDROXYPYRIDINE CHELATES” (LUMIPHORE, INC., priority 2020, published 2024).

Assay: Stability testing of macrocyclic copper chelates: DTPA challenge analysed by reversed phase HPLC
Format: physicochemical
Conditions: approximately 1 mM complex in 100 mM Tris-HCl buffer, pH 7.5, combined one to one with 55 mM DTPA, ambient temperature, 30 minutes
Description: Stability testing of macrocyclic copper chelates. (FIG. 1).
Example 13. Copper complexes 27, 39, and 44 were dissolved at approximately 1 mM concentration in 100 mM Tris-HCl buffer, pH 7.5. A solution of 55 mM diethylenetriaminepentaacetic acid (DTPA), pH 7.5 was prepared. Copper complexes were analyzed by reversed phase HPLC using an Agilent 1200 Series instrument equipped with a Zorbax Eclipse XDB-C18 4.6×150 mm 5 μm column. The method used an isocratic gradient of 0.1M triethylammonium bicarbonate, pH 7.5 (Solvent A) and 10-80% acetonitrile (Solvent B) as mobile phases. A solution of copper complex and DTPA solution combined in a ratio of one to one was prepared and mixed at ambient temperature for 30 minutes prior to analysis. Admixture of DTPA and copper complexes led to variable levels of dissociation of the copper complex, as quantified by the elution of the metal free ligand at shorter retention time.

stability of the copper complex in the presence of DTPA competitor (dissociation quantified by elution of the metal free ligand)	Substance
both are more stable than compound 27	Copper complex of 16-(2-(4-(((S)-5-carboxy-5-(3-((S)-1,3-dicarboxypropyl)ureido)pentyl)carbamoyl)benzamido)ethyl)-1^6,11^6-dimercapto-2,10,12,20-tetraoxo-6- oxa-3,9,13,16,19-pentaaza-1,11(2,5)-dipyridin-1-iumacycloicosaphane 1^1,11^1-dioxide [Compound 27]
more stable than compound 27	Copper(II) complex of 6-(2-aminoethyl)-1^6,11^6-dimercapto-2,10,12,25-tetraoxo-17,20-dioxa-3,6,9,13,24-pentaaza-1,11(2,5)-dipyridin-1-iumacyclopentacosaphane 1^1,11^1-dioxide [Compound 39]

Substance	stability of the copper complex in the presence of DTPA competitor (dissociation quantified by elution of the metal free ligand)
Copper(II) complex of 4-((2-(2-aminoethoxy)ethyl)carbamoyl)-1^6,10^6-dimercapto-2,9,11,24-tetraoxo-16,19-dioxa-3,8,12,23-tetraaza-1,10(2,5)-dipyridin-1- iumacyclotetracosaphane 1^1,10^1-dioxide, trifluoroacetate salt [Compound 44]	more stable in the presence of DTPA competitor than complex 39
